Results on five molecules are retold here after patent US20020164574A1 (priority 2001, published 2002).

Test [1] has as its system M. grisea and S. cerevisiae. In kind it is cell-based. Particulars: OD600; rich liquid media; two fold dilution series; species not given.
The subject of test [2] is S. cerevisiae. In words: YT MicroPlate carbon utilization test with fungicide treatment. The note with it: sub-inhibitory concentration of fungicide; 48 hours incubation; YT MicroPlate (Biolog); FIG. 2. The test is classed as cell-based. As to the method:
The YT microplate test panel (Biolog, Inc.) is designed as a tool for identifying a broad range of yeasts by their carbon utilization patterns. Initial tests were performed with S. cerevisiae in these plates with and without the addition of various fungicides. Very simply, yeast cells are prepared as a water suspension as per the YT microplate instructions. Prior to loading the plates with cells, a fungicide or solvent control is added to the water suspension. The cells are immediately loaded onto a plate. The plates were incubated at 26° C. as per instructions, and OD490 and OD750 readings were obtained at various time points during incubation. The results of fungicide treated samples and controls are compared. Differences in well growth that is altered relative to the control is recorded and is presumed to relate to the mode-of-action of the chemical.
A test in the YT microplate was set up using the sub-inhibitory concentration of three fungicides for which a putative MOA is known. Two fungicides, benomyl and fenpropimorph are predicted to have no effect on carbon utilization, but the third, fenpiclonil, is predicted to affect glucose uptake and utilization. The experiments were performed as described.

“Also recorded” adds a separate entry of the source.

As for `Cc1cccc2sc3nncn3c12` [tricyclazole], in test [1], the “growth inhibition by spectrophotometric analysis” value was “no growth inhibition”.

Consider `O=C1CCc2cccc3c2N1CC3` [pyroquilon], for which the “growth inhibition by spectrophotometric analysis” value in test [1] is “no growth inhibition”.

Regarding `N#Cc1c[nH]cc1-c1cccc(Cl)c1Cl` [fenpiclonil], the “utilization of carbon sources, fungicide treatment compared to controls” value (shortened to “utilization … compared to controls”) in test [2] was “decreased utilization of glucose, raffinose and sucrose; also recorded: significant changes in the utilization of glucose, raffinose, and sucrose”.

As for `CC(Cc1ccc(C(C)(C)C)cc1)CN1C[C@@H](C)O[C@@H](C)C1` (some centres unmarked) [fenpropimorph], in test [2], the “utilization … compared to controls” value is listed as “did not result in any significant differences from the controls”.

As for `CCCCNC(=O)n1c(NC(=O)OC)nc2ccccc21` [benomyl], in test [2], the “utilization … compared to controls” value is reported as “did not result in any significant differences from the controls”.
